Data reported in US10280158B2, “Immune adjustment compound, use thereof and pharmaceutical composition comprising same” (SUZHOU CONNECT BIOPHARMACEUTICALS, LTD., priority 2013, dated 2019).
Like-named read-outs stand apart in the source and are kept apart here.

Columns and labels:
[1] = test system: experimental autoimmune encephalomyelitis (EAE); assay: Experimental autoimmune encephalomyelitis (EAE) model; assay type: in vivo; details: oral, 0.03, 0.1 and 1 mg/kg, Day 0 to Day 30, C57BL/6 mice
Protocol: Eighty female C57BL/6 mice were randomly assigned into eight groups based on body weight and immunized in this study. Each group consisted of ten (10) mice. To induce the disease, MOG 35-55 (MOG, myelin oligo-dendrocyte glycoprotein) was dissolved in saline to a concentration of 2 mg/mL, and was emulsified in modified complete Freund's Adjuvant (CFA). Mice were anesthetized with isoflurane and were then injected with 100 μL of emulsion subcutaneously into the shaved backs of the mice at three sites, one along the midline of the back between the shoulders, and two on each side of the midline on the lower back. Pertuxus toxin (200 ng in 200 μL of PBS) was administered i.p. on the day of immunization and 48 hours after for all groups. EAE development was assessed by clinically scoring of the mice once daily from Day 0 to Day 30 post immunization.

[2] = In vivo pharmacokinetic experiment, oral administration; design: species or system Sprague Dawley rats; details: for half-life: po, 3 mg/kg
Protocol: In this Example, the pharmacokinetic properties of compounds 1, 2, 3, 4 and 5 were evaluated via. i.v. and p.o. dosing to Sprague Dawley rats.
Experimental animals used in this Example and hereinafter were male SD rats of 7-9 weeks old, with body weight ranging from 186 to 231 g, which were purchased from Beijing Vital River Laboratory Animal Technology Co., Ltd. The animals were quarantined by veterinarian for 5 days after purchase, then animals had passed quarantine inspection were selected to be tested under SPE conditions, wherein the tested animals are assigned into 3 rats per group as follows.
Oral administration group: 2.74 mg of each of compounds 1-5 was respectively prepared into a solution of 0.3 mg/mL by using 9.113 mL 0.5% CMC-Na as a diluent. Each solution was vortexed 1-2 mins after mixed fully, and then was ultrasonically treated for 20-30 mins until a uniform suspension was obtained. The uniform suspension was used as medicine administrated to oral administration group, and the administration was conducted with a dose of 10 mL/kg body weight of each rat.
For both oral administration group and intravenous administration group, blood samples were collected at 0.0833 h (5 min), 0.25 h (15 min), 0.5 h, 1 h, 2 h, 4 h, 8 h, and 24 h after administration. After isoflurane anesthesia 0.3 mL whole blood was collected from orbital venous plexus of the animals at each time point. The animals would be euthanized after all samples were collected.
The collected blood samples were placed in EP tubes containing heparin sodium (about 10 μl, 1000 IU/mL), which were then placed in trash ice immediately, and centrifuged at 4,000 rpm and a low temperature (4° C.) for 5 minutes. The plasma was isolated rapidly and then stored at −20° C. until analysis.
The concentration of each compound in blood was measured by LC-MS/MS-001 (Q-trap-3200) with osalmide as internal standard material, as follows. 24 μL blank plasma was added into 6 μL plasma sample (5 times of dilution), and then a solution of acetonitrile containing 150 μL internal standard material (osalmide in 100 μg/mL) was added in. The mixture was shaken for 5 minutes, and then centrifuged at 4,000 rpm for 5 minutes. 2 μL of the obtained sample was implanted into LC-MS/MS for analysis. As for undiluted plasma sample, 30 μL of it was added into a solution of acetonitrile containing 150 μL internal standard material (osalmide in 100 μg/mL). The mixture was shaken for 5 minutes, and then centrifuged at 4,000 rpm for 5 minutes. 2 μL of the obtained sample was implanted into LC-MS/MS for analysis.
As for data analysis, WinNolin (V6.2) non-compartment model (NCA) was used for calculating main metabolic pharmacokinetic parameters including t1/2, AUC(0−t), AUCinf, V, Cl, MRT, etc., and Microsoft Office EXCEL was used for calculating mean values, standard deviations and coefficients of variation.

[3] = male, Sprague-Dawley, rat, plasma, oral administration (3 mg/kg), SD rats

With `CC(C)Cc1ccc(-c2nc(-c3ccc(CN4CC(C(=O)O)C4)c(F)c3)no2)cc1` [Compound 2, 1-{2-fluoro-4-[5-(4-isobutylphenyl)-1,2,4-oxadiazol-3-yl]-benzyl}-3-azetidine carboxylic acid] the “development of EAE (clinical score)” value [1] was “effectively inhibited development of EAE”, the “half-life shortening relative to compound 1” value ([2]; after oral administration, rats) was roughly 50% and the half-life ([2]; male, Sprague-Dawley, rat, plasma, after oral administration, rats, read-out: terminal half-life (converted)) was less than 5.5 h. It also gave a half-life ([2]; male, Sprague-Dawley, rat, plasma, oral administration (3 mg/kg), SD rats, read-out: T½ (converted)) of 5.47 ± 0.63 h, an AUC(0-inf) [2, 3] of 3830 ± 184 ng·h/mL and a Cmax [2, 3] of 341 ± 36.2 ng/mL. For the same molecule, the Tmax [2, 3] was 2 h, the F ([2]; oral administration (3 mg/kg), SD rats) was 63.4% and the “elimination speed after the highest concentration, compared with compounds 1 and 5” value ([2]; oral administration, rats, FIGS. 1A and 1B, in words) was “accelerated obviously”.
